Measurements: US10294202B2, “Pyrrolidinones as herbicides” (FMC Corporation, priority 2013, dated 2019)

How the values were obtained:
barnyardgrass = test: Test C flooded paddy test; type: in vivo, Echinochloa crus-galli; conditions: Flood
In short: (§1)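 Plants grown to the 2-leaf stage; pots flooded to 3 cm above soil and compound applied directly into the paddy water, depth kept throughout. Greenhouse 13 to 15 days, then visual rating vs untreated controls on 0–100 scale (0 no effect, 100 complete control); dash means no result.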

blackgrass = test: Test A postemergence herbicide test; type: in vivo, Alopecurus myosuroides
In short: (§2)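 Blackgrass and galium grown in pots of loam soil–sand blend, treated postemergence at 2–10 cm height, one- to two-leaf stage. Plants kept in greenhouse ~10 days, then visually rated for injury against untreated controls on a 0–100 scale (0 no effect, 100 complete control).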

rice = test: Test C flooded paddy test; type: in vivo, Oryza sativa; conditions: Flood
In short: as §1

ragweed = test: Test A pre-/postemergence herbicide test; type: in vivo, Ambrosia elatior
In short: (§3)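 Seeds in loam–sand blend received preemergence directed soil spray; separately, plants 2–10 cm at one- to two-leaf stage received postemergence spray, both with test chemicals in non-phytotoxic solvent with surfactant. After ~10 days in greenhouse, injury rated visually against untreated controls, 0 (no effect) to 100 (complete control).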

sedge, umbrella = test: Test C flooded paddy test; type: in vivo, Cyperus difformis; conditions: Flood
In short: as §1

ducksalad = test: Test C flooded paddy test; type: in vivo, Heteranthera limosa; conditions: Flood
In short: as §1

galium = test: Test A postemergence herbicide test; type: in vivo, Galium aparine
In short: as §2

kochia = test: Test A pre-/postemergence herbicide test; type: in vivo, Kochia scoparia
In short: as §3

[1] = 31 g ai/ha, scale of 0 to 100 where 0 is no effect and 100 is complete control, 13 to 15 days
[2] = 62 g ai/ha, scale of 0 to 100 where 0 is no effect and 100 is complete control, 13 to 15 days
[3] = 125 g ai/ha, scale of 0 to 100 where 0 is no effect and 100 is complete control, 13 to 15 days
[4] = 250 g ai/ha, scale of 0 to 100 where 0 is no effect and 100 is complete control, 13 to 15 days
[5] = 125 g ai/ha, visual rating on 0 to 100 scale (0 no effect, 100 complete control), approx. 10 days
[6] = 500 g ai/ha, 0 to 100 scale (0 no effect, 100 complete control)
[7] = Postemergence, 125 g ai/ha, visual rating on 0 to 100 scale (0 no effect, 100 complete control), approx. 10 days
[8] = Postemergence, 500 g ai/ha, 0 to 100 scale (0 no effect, 100 complete control)
[9] = Preemergence, 125 g ai/ha, 0 to 100 scale where 0 is no effect and 100 is complete control
[10] = Preemergence, 500 g ai/ha, visual rating on 0 to 100 scale (0 no effect, 100 complete control)
[11] = 125 g ai/ha, 0 to 100 scale, 0 no effect, 100 complete control
[12] = 125 g ai/ha, visual rating, 0 to 100 scale, 0 no effect, 100 complete control, approximately 10 days, preemergence
[13] = Postemergence, 125 g ai/ha, 0 to 100 scale, 0 no effect, 100 complete control
[14] = preemergence, 500 g ai/ha, 0 to 100 scale
[15] = 125 g ai/ha, 0 to 100 scale, 0 is no effect, 100 is complete control
[16] = Postemergence, 125 g ai/ha, 0 to 100 scale, 0 is no effect, 100 is complete control
[17] = preemergence, 500 g ai/ha, 0 to 100 scale, 0 is no effect and 100 is complete control

Row | SMILES | Plant response rating, Barnyardgrass (barnyardgrass; [1]) | Plant response rating, Barnyardgrass (barnyardgrass; [2]) | Plant response rating, Barnyardgrass (barnyardgrass; [3]) | Plant response rating, Barnyardgrass (barnyardgrass; [4]) | Plant response rating, Blackgrass (blackgrass; [6]) | Plant response rating, Rice (rice; [1]) | Plant response rating, Rice (rice; [2]) | Plant response rating, Rice (rice; [3]) | Plant response rating, Rice (rice; [4]) | Plant response rating, Sedge, Umbrella (sedge, umbrella; [1]) | Plant response rating, Sedge, Umbrella (sedge, umbrella; [2]) | Plant response rating, Sedge, Umbrella (sedge, umbrella; [3]) | Plant response rating, Sedge, Umbrella (sedge, umbrella; [4]) | Plant response rating, Ducksalad (ducksalad; [1]) | Plant response rating, Ducksalad (ducksalad; [2]) | Plant response rating, Ducksalad (ducksalad; [3]) | Plant response rating, Ducksalad (ducksalad; [4]) | Plant response rating, Ragweed (ragweed; [12]) | Ragweed plant response rating (0 to 100 scale, 0 is no effect, 100 is complete control) (ragweed; Postemergence, 500 g ai/ha) | Galium plant response rating (0 to 100 scale, 0 is no effect, 100 is complete control) (galium; 500 g ai/ha) | further results
1 | Cc1cccc(NC(=O)C2C(=O)NCC2c2cccc(C(F)(F)F)c2)c1 (stereo not drawn) [Compound 317] | 0 | 0 | 30 | 30 | 20 | 0 | 0 | 0 | 0 | 0 | 0 | 0 | 0 | 0 | 0 | 0 | 0 |  |  |  | Plant response rating, Blackgrass (blackgrass; [5]): 0; Plant response rating, Ragweed (ragweed; [7]): 0; Plant response rating, Ragweed (ragweed; [8]): 0; Plant response rating, Ragweed (ragweed; [9]): 0; Ragweed plant response rating (ragweed; [10]): 0; Plant response rating, Galium (galium; [5]): 0; Plant response rating, Galium (galium; [6]): 0; Plant response rating, Kochia (kochia; [7]): 0; Plant response rating, Kochia (kochia; [8]): 0; Plant response rating, Kochia (kochia; [9]): 0; Kochia plant response rating (kochia; [10]): 0
2 | O=C1NCC(c2ccc(F)cc2)C1C(=O)Nc1cccc(F)c1F (racemic) [Compound 119] | 30 | 50 | 60 |  | 50 | 0 | 0 | 10 |  | 0 | 0 | 0 |  | 100 | 100 | 100 |  | 70 | 30 | 50 | Plant response rating, Barnyardgrass (barnyardgrass; 250 g ai/ha, scale 0 to 100): 75; Plant response rating, Blackgrass (blackgrass; [11]): 30; Plant response rating, Rice (rice; 250 g ai/ha, scale 0 to 100): 20; Plant response rating, Ragweed (ragweed; [13]): 20; Plant response rating, Ragweed (ragweed; [14]): 80; Plant response rating, Sedge, Umbrella (sedge, umbrella; 250 g ai/ha, scale 0 to 100): 0; Plant response rating, Ducksalad (ducksalad; 250 g ai/ha, scale 0 to 100): 100; Plant response rating, Galium (galium; [11]): 30; Plant response rating, Kochia (kochia; [12]): 40; Plant response rating, Kochia (kochia; [13]): 40; Kochia plant response rating (0 to 100 scale, 0 is no effect, 100 is complete control) (kochia; Postemergence, 500 g ai/ha): 50; Plant response rating, Kochia (kochia; [14]): 60
3 | O=C1NCC(c2ccc(C(F)(F)F)cc2)C1C(=O)Nc1ccc(F)c(F)c1F (stereo not drawn) [Compound 232] | 0 | 30 | 40 | 60 |  | 0 | 0 | 0 | 15 | 0 | 0 | 0 | 0 | 50 | 75 | 75 | 95 | 30 | 50 | 60 | Plant response rating, Blackgrass (blackgrass; [15]): 50; Blackgrass plant response rating (0 to 100 scale, 0 is no effect, 100 is complete control) (blackgrass; 500 g ai/ha): 50; Plant response rating, Ragweed (ragweed; [16]): 20; Plant response rating, Ragweed (ragweed; [17]): 90; Plant response rating, Galium (galium; [15]): 60; Plant response rating, Kochia (kochia; [12]): 70; Plant response rating, Kochia (kochia; [16]): 80; Kochia plant response rating (0 to 100 scale, 0 is no effect, 100 is complete control) (kochia; Postemergence, 500 g ai/ha): 90; Plant response rating, Kochia (kochia; [17]): 80
